According to patent US20020165216A1, “Cobalt-porphyrin complexes and use thereof as an anti-obesity agent” (MitoKor, priority 2000, published 2002):
Where two headings read alike, the source gives them in different places.

Key:
[1] = Oxygen consumption catalyzed by Co-P in the presence of ascorbate/TMPD (Clark oxygen electrode); conditions: 2 mM ascorbate, 40 μM TMPD; for Relative Rate (oxygen consumption), effect of ligand, R5, A and n moiety: Table 4; for Relative Rate (oxygen consumption), effect of ligand, R5 and A moiety: Table 3; for O2 consumption / redox cycling (in words): cell free ascorbate/TMPD system
Procedure: (Co-MP). Such activity can be readily determined by, for example, the assay disclosed in Example 16. In that assay, redox activity is measured by oxygen consumption catalyzed by a Co-P test compound in the presence of ascorbate and TMPD.
Ten mM stock solutions of a Co-P of this invention (i.e., test compound) were prepared using ethanol as solvent. KCl media consists of 125 mM KCl, 2 mM K2HPO4, 20 mM HEPES, pH 7.0. Oxygen consumption measurements were carried out using a Clark type oxygen electrode (Rank Brothers Ltd., Cambridge, UK) and assay solutions were magnetically stirred during the course of the experiments. To 500 μl of assay solution (KCl media supplemented with 2 mM sodium ascorbate and 40 μM […] (TMPD)) is added 2 μl of a stock solution of test compound (40 μM final concentration) and the oxygen consumption rate is followed for 2-4 min. Subsequently, a 5 μl aliquot of a freshly made catalase solution (100 mg/ml solution in KCl media) is added to determine if H2O2 is generated via redox cycling of the test compound.
Initial rates are calculated from oxygen consumption slopes and rate of a solvent control is subtracted. […] An aliquot of a 10 mM stock solution of Co-MP (final concentration of 40 μM) was added to assay buffer containing 2 mM of ascorbate and 40 μM of TMPD. […] Addition of catalase results in conversion of H2O2 present in the assay solution to O2 and H2O.
Stock solutions of the test compound were at 10 mM. Aliquots of the stock solutions were added to 500 μl of assay buffer containing 2 mM of ascorbate and 40 μM of TMPD.
Representative Co-P compounds of this invention were prepared by the procedures disclosed above, and assayed by the procedure of Example 16 to measure oxygen consumption catalyzed by the test compound in the presence of ascorbate/TMPD. […] The above procedure was then repeated for other representative Co-P compounds of this invention, but utilizing different ligands and/or R groups.

[2] = system: SH-SY5Y neuroblastoma cells; assay: Cellular assay for generation of reactive oxygen species (ROS); assay type: cell-based; conditions: for generation of reactive oxygen species (DCFC-DA fluorescence): 30 minutes with test compound
Procedure: All cell culture reagents were incubated in a water bath at 37° C. for approximately 30 minutes. Existing media from a near confluent tissue culture flask containing SH-SY5Y neuroblastoma cells was aspirated using a flame sterilized glass transfer pipette attached to a trapped vacuum apparatus. Calcium free PBS buffer was pipetted into the tissue culture flask (2 ml for a 75 cm2 flask, 3 ml for a 175 cm^2 flask). The flask was tipped slightly to ensure that the buffer covers the cell culture and then the buffer was removed by aspiration. Trypsin media was pipetted into the tissue culture flask (2 ml for a 75 cm^2 flask, 3 ml for a 175 cm^2 flask) and evenly spread to ensure that the trypsin covered the cell culture. The cell culture was incubated with trypsin media for 4-6 minutes at room temperature. After cells were released from the flask, the flask was tilted to one corner. Using the existing media within the flask, the aggregated cells were collected towards one corner and repeatedly pipetted to obtain a single cell suspension. The cell suspension was transferred with a pipette into a 15 ml conical shaped centrifuge tube then cell culture media was added to the suspension up to a total volume of 14 ml. Ten μl aliquots were withdrawn and the cells were counted using a hemocytometer. The suspension was centrifuged at 200×g for 10 minutes, the supernatant was aspirated off, and the cell pellet was resuspended at 3.75×10^5 cells/ml in cell culture medium. Two hundred μl of cell suspension were aliquoted per well in the 96 well dish to obtain a final cell number of 75,000 cells per well. The plates were incubated overnight at 37° C. and 5% CO2 in a humidified cell incubator.
The medium was carefully removed from the wells by aspiration with an 18 g needle. The wells were gently rinsed once with 200 μl of warm Hanks balanced saline solution (HBSS, Gibco-BRL). […]
Stock solutions of test compound, such as Co-PP, Co-MP, or a Co-P of this invention, and of an H2O2 scavenger such as ebselen, were typically prepared in dimethylformamide or dimethylsulfoxide and diluted further into working concentrations using HBSS. […] The plate was read immediately in Cytofluor model 2350 system (Millipore; excitation wavelength: 485 nm; emission wavelength: 530 nm) for a 0 min timepoint reading. The cells were incubated for 30 minutes at room temperature with test compound following which a 30 min reading was taken. The change in RMF over the 30 minutes period was calculated for each well. […] The plate was then read in the Cytofluor (excitation wavelength: 360 nm; emission wavelength: 460 nm) and the Hoechst fluorescence values were used to normalize the DCFC-DA RMF data.

reduced cytochrome c = reduced cytochrome c (Homo sapiens, UniProt P99999); assay: Oxidation of reduced cytochrome c by Co-PP; assay type: biochemical; conditions: reduced cytochrome c 5.3, 10.5, 26 μM; 0-100 μM CoPP; absorbance at 550 nm
reduced cytochrome c, sequence (P99999 whole entry): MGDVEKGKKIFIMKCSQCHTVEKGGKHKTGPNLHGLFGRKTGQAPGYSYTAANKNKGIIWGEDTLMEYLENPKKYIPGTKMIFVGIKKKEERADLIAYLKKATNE
Procedure: Reduced cytochrome c was prepared by the addition of an excess of ascorbic acid to a solution of cytochrome c and allowing the solution to stand for 5 to 10 minutes. The reduced protein was purified over a Sephadex G50 column and checked spectrophotometrically by measuring absorbance at 550 nm, followed by the addition of a few grains of dithionite and measuring absorbance again at 550 nm. […] Initial rates of oxidation of reduced cytochrome c at three concentrations (5.3 μM, 10.5 μM and 26 μM) were followed in the presence of 0, 5,10, 20 and 100 μM CoPP. Assays were conducted in 1 ml of assay buffer (20 mM potassium phosphate, pH 7.0, 0.2 mg/ml dodecyl-β-maltoside) and initiated by the addition of desired concentration of reduced cytochrome c and monitoring the change in absorbance at 550 nm for 90 seconds. The fully oxidized absorbance value was determined by the addition of a few grains of ferricyanide to the cuvette. […] In a biological system, Co-PP can transfer electrons from an electron rich donor/reductant to molecular oxygen, O2, to generate reactive oxygen species, the production of which can be toxic to cells and give rise to undesirable side effects (e.g. oxidative stress).

[3] = cited from earlier work
[4] = subcutaneous administration, Zucker rats fa/fa; cited from earlier work
[5] = high doses; cited from earlier work
Weight loss assay = assay type: in vivo, Male Sprague Dawley rats; conditions: 12 mM in vehicle, 400 μl per 100 grams body weight, subcutaneous, nuchal area, 8 days
Procedure: Male Sprague Dawley rats (approximately 200 g) were purchased from Charles River Canada, Inc. and were shipped to the Animal Care Facility at the University of Vermont. Upon arrival they were housed in separate cages with corncob bedding and ad lib access to tap water and purina rat chow. The animal facility is maintained at a temperature of 71° F. +/− 1° F. with a 12-hour light/dark cycle, lights on at 6:00 am and off at 6:00 pm. Two days later (Day-3) all rats were shaved in the nuchal area and baseline color photographs of the nuchal area were taken (light halothane anesthesia was utilized to facilitate the shaving). Three days later (Day 0) experimental compounds were made up at 12 mM concentrations in vehicle (i.e., saline:PEG400:EtOH (5:4:1), pH 7.4). Animals were injected subcutaneously in the nuchal area with the various stock solutions at a dose of 400 μl per 100 grams body weight. Typical injection volumes, therefore, range from 1 to 1.5 ml per animal. Animals were injected using a modified Z-track technique to try and minimize outflow of injected compounds due to the high volume utilized. Each animal was weighed prior to injection and all injections were accomplished in an approximately two-hour period. No anesthesia was utilized for injections.
Animals subsequently underwent daily weighing with a Mettler 6 second integrating balance and had ad lib access to tap water and purina rat chow. At various intervals after injections, the nuchal area of rats was again photographed. […] The scale used was 0 for no lesions, 5 for the worst lesions with breakdown of the skin and open flow of exudates. Grades in-between were estimated by the operator based on the size and severity of the lesion. […] After 8 days, final photographs were taken and all animals were euthanized, marking the end of the experiment.
Means of body weights for each group were calculated and plotted over time (FIG. 9A), as were numerical means of the lesion severity index (FIG. 9B). In FIGS. 9A and 9B, C=noninjected control, V=vehicle injected control, A=Co-MP, E=Cpd. No. (1-6) and F=Cpd. No. (4-4). […] Cpd.

[6] = 40 μM test compound, normalized to chloride salt of Co-MP = 1

Cobalt (III) Mesoporphyrin IX Dithiobenzyl Ether [(10-1)]
Relative Rate (oxygen consumption), effect of ligand, R5, A and n moiety [1, 6]: 0.021

O=c1c2ccccc2[se]n1-c1ccccc1 [ebelsen, ebselen]
scavenging of reactive oxygen species induced by Co-PP and Co-MP [2]: scavanges the reactive oxygen species

C=CC1=C(C)c2cc3[n-]c(cc4nc(cc5[n-]c(cc1n2)c(C)c5CCC(=O)[O-])C(CCC(=O)[O-])=C4C)c(C)c3C=C.[Co+2].[H+].[H+] [Co-PP, Cobalt protoporphyrin]
oxidation of reduced cytochrome c (reduced cytochrome c): serves as an electron acceptor from reduced cytochrome c | body weight ([3]; single subcutaneous injection): sustained decrease in body weight | carcass composition ([3]; single subcutaneous injection): decreases in carcass fat content without changes in protein content | food intake ([3]; single subcutaneous injection): prompt dose-dependent decrease in food intake | food intake and body weight effect ([3]; smaller doses, intracerebroventricular administration): elicit the same effect | body weight [4]: long-sustained reduction in body weight | generation of reactive oxygen species (DCFC-DA fluorescence) [2]: reactive oxygen species were induced | Relative Rate (oxygen consumption), effect of ligand, R5 and A moiety [1, 6]: 2.2 | heme oxygenase induction [5]: induction of heme oxygenase | oxidative stress [5]: oxidative stress has been associated with administration of high doses

Cobalt (III) Mesoporphyrin IX Diacetate [(7-1)]
Relative Rate (oxygen consumption), effect of ligand, R5, A and n moiety [1, 6]: 0.07

Cobalt (III) Mesoporphyrin IX Diol [(6-1)]
Relative Rate (oxygen consumption), effect of ligand, R5, A and n moiety [1, 6]: 0.56

c1c[nH]cn1 [imidazole]
O2 consumption / redox cycling (in words) [1]: blocks generation of reactive oxygen species

Cobalt (III) Mesioirogyrin IX [(11-1)]
Relative Rate (oxygen consumption), effect of ligand, R5, A and n moiety [1, 6]: 0.0005

Cobalt (III) Mesoporphyrin IX bisglycinate monosodium salt, dimethyl ester [(1-1)]
Relative Rate (oxygen consumption), effect of ligand, R5 and A moiety [1, 6]: 0.21 ± 0.04

Cobalt (III) Mesoporphyrin IX Dimethyl Ester [(5-1)]
Relative Rate (oxygen consumption), effect of ligand and R5 moiety ([1]; Table 2, 40 μM test compound, normalized to chloride salt of Co-MP = 1): 0.05-0.07

CCC1=C(C)c2cc3[n-]c(cc4nc(cc5[n-]c(cc1n2)c(C)c5CCC(=O)NC(C)C)C(CCC(=O)NC(C)C)=C4C)c(C)c3CC.NCC(=O)O.NCC(=O)[O-].[Co+3] [(4-4), Cobalt (III) mesoporphvrin IX bisglycinate, di—(N-isopropyl)amide]
body weight response (Weight loss assay): favorable body weight responses

Cobalt (III) Mesoporphyrin IX bisglycinate monosodium salt diisopropyl ester [(1-6)]
Relative Rate (oxygen consumption), effect of ligand, R5 and A moiety [1, 6]: (not detected) | body weight response (Weight loss assay): favorable body weight responses

Cobalt (III) Mesoporphyrin IX bisglycinate monosodium salt dibutyl ester [(1-2)]
Relative Rate (oxygen consumption), effect of ligand, R5 and A moiety [1, 6]: (not detected)

Cobalt (III) Mesoporphyrin IX bisglycinate monosodium salt, diisobutyl ester [(1-3)]
Relative Rate (oxygen consumption), effect of ligand, R5 and A moiety [1, 6]: (not detected)

Cobalt (III) mesoporphyrin IX bisimidazole, di(4-methoxybenzyl) amide [(4-2)]
generation of reactive oxygen species (DCFC-DA fluorescence) [2]: does not trigger generation of reactive oxygen species | Relative Rate (oxygen consumption), effect of ligand, R5 and A moiety [1, 6]: (not detected) | O2 consumption / redox cycling (in words) [1]: does not result in any O2 consumption

Cobalt (III) Mesoporphyrin IX Dibenzyl Ester [(8-1)]
Relative Rate (oxygen consumption), effect of ligand, R5, A and n moiety [1, 6]: 0.045

Cobalt (III) Mesoporphyrin IX bisglycinate monosodium salt, diisoamyl ester [(1-4)]
Relative Rate (oxygen consumption), effect of ligand, R5 and A moiety [1, 6]: (not detected)

Cobalt (III) Mesoporphyrin IX bisglycinate monosodium salt, diethyl ester [(1-5)]
Relative Rate (oxygen consumption), effect of ligand, R5 and A moiety [1, 6]: 0.08 ± 0.01
